What all share (format): cell-based, human
In assay [1] the test system is HepG2 cells. Description: Annexin V-Alexa Fluor 647/PI staining, flow cytometry. The conditions noted are these: 48 h. On the procedure:
HepG2 cells were seeded into six-well plates (3 × 10^5/well) overnight to allow the cells to grow adherently and then incubated with a14 at the concentrations of 0, 30, 40, 50, 60 or 70 µM for 48 h. In order to assess apoptosis, the double Annexin V-Alexa Fluor 647/PI (Beijing Solarbio Science & Technology Co., Ltd) immunofluorescence labeling method was used. After the cells were collected by centrifugation, 5 µl of Annexin V-Alexa Fluor 647 and 10 µl of PI solution (20 ug/ml) were added to each well. The cells were mixed and incubated at room temperature for 15 min in the dark and then mixed with 400 µl of PBS. Then, a Beckman Coulter flow cytometer (Beckman Coulter, Inc. California) was used to monitor the fluorescence. Ten thousand events were collected for each sample, and the data were analyzed via Flow Jo-V10 software.
On the technique in general: A flow cytometer gives signals particle by particle.

The test system of a further assay is Hela. The assay is described as follows: MTT cell viability assay, Hela. To be noted: Homo sapiens, HeLa, 48 h, mean ± SE. As for the experimental part:
HeLa, A549, HepG2, HL-60, and WI-38 cell lines were incubated in DMEM solution containing 10% FBS for 48 h. The incubated tumor cells were seeded into 96-well plates (5 × 10^3 cells/well) to make them attach for 12 h. Afterwards, the cells were processed with the various concentrations of the synthetic compounds and 5-FU for 48 h. After removing the cell culture supernatant, 10 µl MTT (5 mg/ml) solution was dripped into the cells to generate a formazan product, which were dissolved by dimethyl sulfoxide (DMSO) 4 h later. Multifunction microplate reader (Bio-Rad Laboratories, Shanghai, China) was adopted to measure the absorbance at the wave length of 490 nm. The IC50 (the lowest drug concentration causing 50% of the tumor cells inhibition) was then calculated using GraphPad Prism Software (version 5.02) and used to indicate the cytotoxic effect of the target compounds on the selected tumor cells.
Background: Tetrazolium assays rely on reduction of a dye to a coloured formazan, in cell work by metabolically active cells.

Assay [2] relates to mitochondrial membrane potential in HepG2 cells. Description: Mitochondrial membrane potential by JC-1 probe. The conditions noted are these: a14 50 µM. As for the experimental part:
JC-1 probe was used to detect changes in MMP. Firstly, HepG2 cells (3 × 10^5 cells/well) were seeded into a six-well plate overnight for adherence, and then treated with various concentrations of a14 for 48 h. Next, the cells were treated with JC-1 (2.5 µg/ml) at 37°C for 10 min in the dark and rinsed three times with PBS. Then, the six-well plate was placed under the fluorescence microscope (excitation 480/30× nm, emission 515 nm) to observe the fluorescence color and intensity of JC-1 in the cells. In addition, HepG2 cells (3 × 10^5 cells/well) were inoculated on another six-well plate overnight to allow adherence, and then treated with a14 (50 µM) for 0, 12, 24, 36, and 48 h, adding CCCP (without a14) for 20 min to completely lose the mitochondrial membrane potential. Cells were then incubated with JC-1 (2.5 µg/ml) at 37°C in the dark for 10 min and rinsed with PBS for three times. Fluorescence intensity of residual JC-1 in cells was measured by Beckman Coulter flow cytometer (FITC, 525/40BP). The data obtained was analyzed by CytExpert 2.0 software imbedded in the flow cytometry.

Assay [3] deals with HepG2 cells. Description: Cell cycle arrest by PI staining, flow cytometry. The conditions noted are these: for G2/M: 24 h. On the procedure: HepG2 cells were seeded into six-well plates (3 × 10^5/well) overnight to allow the cells to grow adherently and then incubated with a14 at the concentrations of 0, 30, 40, 50, 60 or 70 µM for 24 and 48 h. After the incubation time, the cells were collected by centrifugation (1000 r/min) and fixed overnight with […] ethanol at 4°C, and then the cells were removed and washed three times with ice-cold PBS. Afterwards, the cells were added to RNase A (Beijing Solarbio Science & Technology Co., Ltd.), and incubated for 30 min at 37°C, after which PI (Beijing Solarbio Science & Technology Co., Ltd.) was added. The fluorescence was monitored by a Beckman Coulter flow cytometer (Beckman Coulter, Inc. California). Ten thousand events were collected per sample, and the data were analyzed using Modfit LT 5.0 software.

The structures appear in SMILES notation.

As for `COc1cc(/C=C/C(=O)c2ccc(O)c(C(N)=O)c2)cc(OC)c1OC` [a14], the Early apoptosis is on record as 3.10% with HepG2 cells [1] (a14 30 µM) and 28.62% in the assay on HepG2 cells [1] (a14 70 µM). Further, the Late apoptosis came out at 9.45% with HepG2 cells [1] (a14 30 µM) and 32.89% in the assay with HepG2 cells [1] (a14 70 µM). Moreover, in the assay with HepG2 cells [1] (a14 50 µM), the “increase of percentage of early apoptosis compared with the untreated group” value was 28.35%. For the same compound, the “increase of percentage of late apoptosis compared with the untreated group” value in the assay on HepG2 cells [1] (a14 50 µM) is reported as 13.51%. Moreover, half-maximal inhibition in the assay on Hela (IC50) was put at 23.3 ± 2.35 µM. In assay [2] (48 h (untreated 50.08%)), the “JC-1 (FITC), right of the gate line (green fluorescence)” value is 91.94%. Moreover, the “JC-1 fluorescence colour under the fluorescence microscope” value in assay [2] (48 h, in words) is listed as “almost all cells had shown green fluorescence”. Moreover, the values for the G2/M in the assay with HepG2 cells [3] (a14 30 µM) and with HepG2 cells [3] (a14 70 µM) were 19.07% and 79.57%, respectively. Besides, the “increase of percentage of G2/M compared with the untreated group” value with HepG2 cells [3] (a14 50 µM, 48 h) is listed as 73.82%.
